Experimental findings from US9029389B2 (Institut Pasteur Korea, priority 2011, dated 2015) are described below.

For one data set, the target named is T1, Human 5-lipoxygenase (Homo sapiens, UniProt P09917).
T1 construct: purchased Cayman 60402; host or cells: insect cells
T1 sequence (P09917 1-674): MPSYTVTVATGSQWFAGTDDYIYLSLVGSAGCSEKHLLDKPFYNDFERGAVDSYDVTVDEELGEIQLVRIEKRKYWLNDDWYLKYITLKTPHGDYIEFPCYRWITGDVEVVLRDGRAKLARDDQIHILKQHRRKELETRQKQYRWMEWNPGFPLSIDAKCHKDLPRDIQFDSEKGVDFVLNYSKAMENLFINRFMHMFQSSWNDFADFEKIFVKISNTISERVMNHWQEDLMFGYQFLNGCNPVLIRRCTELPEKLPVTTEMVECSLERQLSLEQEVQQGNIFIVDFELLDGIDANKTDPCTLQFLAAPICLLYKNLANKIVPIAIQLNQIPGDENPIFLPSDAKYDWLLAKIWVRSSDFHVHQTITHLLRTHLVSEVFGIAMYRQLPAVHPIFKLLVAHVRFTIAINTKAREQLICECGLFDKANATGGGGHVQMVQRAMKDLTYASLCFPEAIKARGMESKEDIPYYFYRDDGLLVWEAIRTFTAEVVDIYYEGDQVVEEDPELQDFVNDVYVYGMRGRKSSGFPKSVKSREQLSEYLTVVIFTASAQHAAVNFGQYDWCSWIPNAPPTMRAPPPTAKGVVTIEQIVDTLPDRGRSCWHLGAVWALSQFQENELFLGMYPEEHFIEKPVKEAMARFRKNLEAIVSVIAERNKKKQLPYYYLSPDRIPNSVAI
The data set is described as follows: Activity of compounds against 5-LO enzyme (LTB4 measurement and/or fluorescence method). As to conditions: for inhibition at 10 µM: 5-LO, single concentration of 10 uM in duplicate; for IC50: 6 or 11 point dose response in duplicate. The format is biochemical. The procedure, abridged:
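Two read-outs: LTB4 measured by EIA and/or LC/MS/MS with LTB4-d4 standard after 15 min RT compound preincubation with insect-cell 5-LO and a 5 min 37 °C reaction on 3 uM arachidonic acid (0.1 mM ATP, pH 7.4). The room-temperature fluorescence format used 20 uM H2DCFDA, 100 uM ATP, 3 uM arachidonic acid, 5 min; IC50 from 6/11-point curves.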

Where only a bound is given, the exact number is not on record here.

Turning to `CCc1nc2cc(Cl)ccn2c1C(=O)NCc1ccc(Oc2ccc(OC(F)(F)F)cc2)cc1` [compound 128, 7-Chloro-2-ethyl-N-(4-(4-(trifluoromethoxy)phenoxy)benzyl)imidazo[1,2-a]pyridine-3-carboxamide], the melting point lay in the range of 141 to 142 °C. On Human 5-lipoxygenase, this compound had an inhibition at 10 µM of over 69% and an IC50 of under 1000 nM.
`CCc1nc2ccc(Cl)cn2c1C(=O)NCc1ccc(C#N)cc1` [compound 134, 6-Chloro-N-(4-cyanobenzyl)-2-ethylimidazo[1,2-a]pyridine-3-carboxamide] showed a melting point of 223 to 224 °C. Further, the inhibition at 10 µM on Human 5-lipoxygenase is under 40%.
Taken in the same sequence, the figures for `CCc1nc2ccc(Cl)cn2c1C(=O)NCc1ccc(C(F)(F)F)cc1` [compound 135, 6-Chloro-2-ethyl-N-(4-(trifluoromethyl)benzyl)imidazo[1,2-a]pyridine-3-carboxamide] were 179 to 180 °C and under 40%.
Taken in the same sequence, the figures for `CCc1nc2ccc(Cl)cn2c1C(=O)NCCc1ccc(OC)cc1` [compound 136, 6-Chloro-2-ethyl-N-(4-methoxyphenethyl)imidazo[1,2-a]pyridine-3-carboxamide] were 129 to 130 °C and under 40%.
Taken in the same sequence, the figures for `CCc1nc2ccc(Cl)cn2c1C(=O)NCCc1ccc(Cl)cc1` [compound 137, 6-Chloro-N-(4-chlorophenethyl)-2-ethylimidazo[1,2-a]pyridine-3-carboxamide] were 158 to 159 °C and 40 to 69%.
The compound `CCc1nc2ccc(Cl)cn2c1C(=O)NCC1CCN(Cc2ccc(OC(F)(F)F)cc2)CC1` [compound 138, 6-Chloro-2-ethyl-N-((1-(4-(trifluoromethoxy)benzyl)piperidin-4-yl)methyl)imidazo[1,2-a]pyridine-3-carboxamide] registered a melting point of 171 to 172 °C. This compound registered an inhibition at 10 µM against Human 5-lipoxygenase of 40 to 69%.
Taken in the same sequence, the figures for `CCc1nc2ccc(Cl)cn2c1C(=O)NCC1CCN(Cc2ccc(F)cc2)CC1` [compound 139, 6-Chloro-2-ethyl-N-((1-(4-fluorobenzyl)piperidin-4-yl)methyl)imidazo[1,2-a]pyridine-3-carboxamide] were 176 to 177 °C and under 40%.
Taken in the same sequence, the figures for `CCc1nc2cc(Cl)ccn2c1C(=O)NCC1CCN(Cc2ccc(OC(F)(F)F)cc2)CC1` [compound 140, 7-Chloro-2-ethyl-N-((1-(4-(trifluoromethoxy)benzyl)piperidin-4-yl)methyl)imidazo[1,2-a]pyridine-3-carboxamide] were 145 to 146 °C and 40 to 69%.
As for `CCc1nc2cnccn2c1C(=O)NCc1ccc(OC(F)(F)F)cc1` [compound 141, 2-Ethyl-N-(4-(trifluoromethoxy)benzyl)imidazo[1,2-a]pyrazine-3-carboxamide], the melting point lay within 176 to 177 °C. On Human 5-lipoxygenase, the inhibition at 10 µM was under 40%.
For `CCc1nc2c[n+]([O-])ccn2c1C(=O)NCc1ccc(OC(F)(F)F)cc1` [compound 142, 2-Ethyl-3-((4-(trifluoromethoxy)benzyl)carbamoyl)imidazo[1,2-a]pyrazine 7-oxide] the same measures were 215 to 216 °C and 40 to 69%.
In turn, `CCc1nc2ccc(Cl)cn2c1COc1ccc(OC(F)(F)F)cc1` [compound 143, 6-Chloro-2-ethyl-3-((4-(trifluoromethoxy)phenoxy)methyl)imidazo[1,2-a]pyridine] returned a melting point of 127 to 128 °C. The compound also gave an inhibition at 10 µM against Human 5-lipoxygenase of over 69%.
For `CCc1nc2ccc(Cl)cn2c1C=O` [compound 145, 6-Chloro-2-ethylimidazo[1,2-a]pyridine-3-carbaldehyde] the same measures were 115 to 116 °C and under 40%.
Compound `CCc1nc2ccc(Cl)cn2c1CO` [compound 146, (6-Chloro-2-ethylimidazo[1,2-a]pyridin-3-yl)methanol] registered a melting point of 173.2 to 174.2 °C. Also, the inhibition at 10 µM on Human 5-lipoxygenase is under 40%.
For `CCc1nc2cc(Cl)ccn2c1C(=O)NCc1ccc(C(F)(F)F)cc1` [compound 155, 7-Chloro-2-ethyl-N-(4-(trifluoromethyl)benzyl)imidazo[1,2-a]pyridine-3-carboxamide] the same measures were 196.2 to 196.9 °C and under 40%.
Taken in the same sequence, the figures for `CCc1nc2ccc(Cl)cn2c1C(=O)NCc1ccc(N2CCN(Cc3ccc(OC(F)(F)F)cc3)CC2)cc1` [compound 156, 6-Chloro-2-ethyl-N-(4-(4-(4-(trifluoromethoxy)benzyl)piperazin-1-yl)benzyl)imidazo[1,2-a]pyridine-3-carboxamide] were 138.1 to 138.7 °C and under 40%.
In turn, `CCc1nc2cc(Cl)ccn2c1C(=O)NCc1ccc(N2CCN(Cc3ccc(OC(F)(F)F)cc3)CC2)cc1` [compound 157, 7-Chloro-2-ethyl-N-(4-(4-(4-(trifluoromethoxy)benzyl)piperazin-1-yl)benzyl)imidazo[1,2-a]pyridine-3-carboxamide] had a melting point of 137.1 to 137.6 °C. For the same compound, on Human 5-lipoxygenase, the inhibition at 10 µM is over 69% and the IC50 fell in the range of 1000 to 20000 nM.
On to `CCc1nc2ccc(Cl)cn2c1C(=O)NCc1ccc(N2CCN(c3ccc(OC(F)(F)F)cc3)CC2)cc1` [compound 158, 6-Chloro-2-ethyl-N-(4-(4-(4-(trifluoromethoxy)phenyl)piperazin-1-yl)benzyl)imidazo[1,2-a]pyridine-3-carboxamide], for which the melting point was in the range of 206.5 to 207 °C. Besides, the inhibition at 10 µM on Human 5-lipoxygenase lay in the range of 40 to 69%.
For `CCc1nc2cc(Cl)ccn2c1C(=O)NCc1ccc(N2CCN(c3ccc(OC(F)(F)F)cc3)CC2)cc1` [compound 159, 7-Chloro-2-ethyl-N-(4-(4-(4-(trifluoromethoxy)phenyl)piperazin-1-yl)benzyl)imidazo[1,2-a]pyridine-3-carboxamide] the same measures were 216.3 to 217 °C and 40 to 69%.
For `CCc1nc2ccc(Cl)cn2c1C(=O)NCc1ccc(Oc2ccc(Cl)cc2)cc1` [compound 160, 6-Chloro-N-(4-(4-chlorophenoxy)benzyl)-2-ethylimidazo[1,2-a]pyridine-3-carboxamide] the same measures were 159 to 160.7 °C and 40 to 69%.
With `CCc1nc2cc(Cl)ccn2c1C(=O)NCc1ccc(Oc2ccc(Cl)cc2)cc1` [compound 161, 7-Chloro-N-(4-(4-chlorophenoxy)benzyl)-2-ethylimidazo[1,2-a]pyridine-3-carboxamide], the melting point is 167.1 to 167.9 °C. Further, at Human 5-lipoxygenase, the inhibition at 10 µM is over 69% and the IC50 lay in the range of 1000 to 20000 nM.
Turning to `CCc1nc2ccc(Cl)cn2c1C(=O)OCc1ccc(-c2ccccc2)cc1` [compound 162, [1,1′-Biphenyl]-4-ylmethyl 6-chloro-2-ethylimidazo[1,2-a]pyridine-3-carboxylate], the melting point is 122.3 to 123 °C. This compound also had an inhibition at 10 µM on Human 5-lipoxygenase of 40 to 69%.
For `CCc1nc2ccc(Cl)cn2c1C(=O)OCc1ccc(Oc2ccccc2)cc1` [compound 163, 4-Phenoxybenzyl 6-chloro-2-ethylimidazo[1,2-a]pyridine-3-carboxylate] the same measures were 123.3 to 123.8 °C and 40 to 69%.
The compound `CCc1nc2ccc(Cl)cn2c1-c1nc(Cc2ccc(OC(F)(F)F)cc2)no1` [compound 165, 5-(6-Chloro-2-ethylimidazo[1,2-a]pyridin-3-yl)-3-(4-(trifluoromethoxy)benzyl)-1,2,4-oxadiazole] showed a melting point of 146.4 to 146.9 °C. The inhibition at 10 µM on Human 5-lipoxygenase was under 40%.
The compound `CCc1nc2ccccn2c1C(=O)NCc1ccc(N2CCN(c3ccc(OC(F)(F)F)cc3)CC2)cc1` [compound 181, 2-Ethyl-N-(4-(4-(4-(trifluoromethoxy)phenyl)piperazin-1-yl)benzyl)imidazo[1,2-a]pyridine-3-carboxamide] gave a melting point of 178 to 179 °C. On Human 5-lipoxygenase, this compound had an inhibition at 10 µM of over 69% and an IC50 of 1000 to 20000 nM.
For `CCc1nc2ccc(Cl)cn2c1C(=O)NCc1ccc(N2CC(C)OC(C)C2)cc1` (centres unmarked) [compound 182, 6-Chloro-N-(4-(2,6-dimethylmorpholino)benzyl)-2-ethylimidazo[1,2-a]pyridine-3-carboxamide], the melting point was 176 to 177 °C. Moreover, the inhibition at 10 µM at Human 5-lipoxygenase is under 40%.
Taken in the same sequence, the figures for `CCc1nc2cc(Cl)ccn2c1C(=O)NCc1ccc(N2CC(C)OC(C)C2)cc1` (centres unmarked) [compound 183, 7-Chloro-N-(4-(2,6-dimethylmorpholino)benzyl)-2-ethylimidazo[1,2-a]pyridine-3-carboxamide] were 165 to 166 °C and under 40%.
